Assay results taken from ChEMBL document CHEMBL1773016, “Discovery and optimization of a series of benzothiazole phosphoinositide 3-kinase (PI3K)/mammalian target of rapamycin (mTOR) dual inhibitors” (J Med Chem, 2011).

target: Serine/threonine-protein kinase mTOR (Homo sapiens, UniProt P42345); experiment: not given; settings: not given

Compound | IC50 [nM]
COc1cccc(COc2nccc(-c3ccc4nc(NC(C)=O)sc4c3)n2)c1 | > 6000
COc1ccc(Sc2nccc(-c3ccc4nc(NC(C)=O)sc4c3)n2)cc1 | 3010
CC(=O)Nc1nc2ccc(-c3ccnc(OCc4cccc(F)c4)n3)cc2s1 | > 6000
CC(=O)Nc1nc2ccc(-c3ccnc(OCc4cccc(C)c4)n3)cc2s1 | > 6000
CC(=O)Nc1nc2ccc(-c3ccnc(OCc4ccc(F)cc4)n3)cc2s1 | > 6000
CC(=O)Nc1nc2ccc(-c3ccnc(OCc4ccc(C)cc4)n3)cc2s1 | > 6000
COc1ccc(COc2nccc(-c3ccc4nc(NC(C)=O)sc4c3)n2)cc1 | > 6000
CC(=O)Nc1nc2ccc(-c3ccnc(OCc4ccncc4)n3)cc2s1 | > 6000
CC(=O)Nc1nc2ccc(-c3ccnc(OCCCc4ccncc4)n3)cc2s1 | > 6000
CC(=O)Nc1nc2ccc(-c3ccnc(OCCCc4ccccc4)n3)cc2s1 | > 6000
CC(=O)Nc1nc2ccc(-c3ccnc(OCCCN4CCOCC4)n3)cc2s1 | > 6000
CC(=O)Nc1nc2ccc(-c3ccnc(NC(C)(C)c4ccccc4)n3)cc2s1 | > 6000
COc1ccc(C(=O)Nc2nccc(-c3ccc4nc(NC(C)=O)sc4c3)n2)cc1 | > 6000
CC(=O)Nc1nc2ccc(-c3ccnc(N(C)S(=O)(=O)c4ccccc4F)n3)cc2s1 | > 6000
CC(=O)Nc1nc2ccc(-c3ccnc(Sc4ccccc4)n3)cc2s1 | > 6000
CC(=O)Nc1nc2ccc(-c3ccnc(SCc4ccccc4)n3)cc2s1 | > 6000
CC(=O)Nc1nc2ccc(-c3ccnc(Oc4ccccc4)n3)cc2s1 | > 6000
CC(=O)Nc1nc2ccc(-c3ccnc(OCc4ccccc4)n3)cc2s1 | > 6000
CC(=O)Nc1nc2ccc(-c3ccnc(NCc4ccccc4)n3)cc2s1 | > 6000
CC(=O)Nc1nc2ccc(-c3ccnc(Cc4ccccc4)n3)cc2s1 | > 6000
CC(=O)Nc1nc2ccc(-c3ccnc(CCc4ccccc4)n3)cc2s1 | > 6000
CC(=O)Nc1nc2ccc(-c3ccnc(Sc4ccccc4F)n3)cc2s1 | > 6000
CC(=O)Nc1nc2ccc(-c3ccnc(Sc4cccc(F)c4)n3)cc2s1 | > 6000
CC(=O)Nc1nc2ccc(-c3ccnc(Sc4ccc(F)cc4)n3)cc2s1 | > 6000
CC(=O)Nc1nc2ccc(-c3ccnc(Sc4ccccc4C)n3)cc2s1 | > 6000
CC(=O)Nc1nc2ccc(-c3ccnc(Sc4cccc(C)c4)n3)cc2s1 | > 6000
CC(=O)Nc1nc2ccc(-c3ccnc(Sc4ccc(C)cc4)n3)cc2s1 | > 6000
COc1ccccc1Sc1nccc(-c2ccc3nc(NC(C)=O)sc3c2)n1 | > 6000
COc1cccc(Sc2nccc(-c3ccc4nc(NC(C)=O)sc4c3)n2)c1 | > 6000
COc1ccc(S(=O)(=O)Nc2cccc(-c3ccc4nc(NC(C)=O)sc4c3)c2)cc1 | 1500

Molecules with a lower IC50, results first:

IC50 [nM] | Compound
29 | COc1ccc(S(=O)(=O)Nc2cc(-c3ccc4nc(NC(C)=O)sc4c3)ccn2)cc1
913 | CC(=O)Nc1nc2ccc(-c3ccnc(OCCCc4cccnc4)n3)cc2s1
57 | COc1ccc(S(=O)(=O)Nc2nccc(-c3ccc4nc(NC(C)=O)sc4c3)n2)cc1
285 | COc1ccc(S(=O)(=O)N(C)c2nccc(-c3ccc4nc(NC(C)=O)sc4c3)n2)cc1
262 | CCN(c1nccc(-c2ccc3nc(NC(C)=O)sc3c2)n1)S(=O)(=O)c1ccc(OC)cc1
45 | CC(=O)Nc1nc2ccc(-c3ccnc(NS(=O)(=O)c4ccccc4F)n3)cc2s1
47 | CC(=O)Nc1nc2ccc(-c3ccnc(NS(=O)(=O)c4cccc(F)c4)n3)cc2s1
719 | CC(=O)Nc1nc2ccc(-c3ccnc(NS(=O)(=O)c4ccc(F)cc4)n3)cc2s1
65 | CC(=O)Nc1nc2ccc(-c3ccnc(NS(=O)(=O)c4ccc(C)cc4)n3)cc2s1
269 | CC(=O)Nc1nc2ccc(-c3ccnc(N(C)S(=O)(=O)c4ccc(C)cc4)n3)cc2s1
11 | COc1ccc(S(=O)(=O)Nc2cncc(-c3ccc4nc(NC(C)=O)sc4c3)c2)cc1
15 | COc1ccc(S(=O)(=O)Nc2cncc(-c3ccc4nc(NC(C)=O)sc4c3)n2)cc1
1.6 | COc1ccc(S(=O)(=O)Nc2cc(-c3ccc4nc(NC(C)=O)sc4c3)cnc2C#N)cc1
6 | COc1ccc(S(=O)(=O)Nc2cc(-c3ccc4nc(NC(C)=O)sc4c3)cnc2C)cc1
2.1 | COc1ccc(S(=O)(=O)Nc2cc(-c3ccc4nc(NC(C)=O)sc4c3)cnc2Cl)cc1
< 1 | CC(=O)Nc1nc2ccc(-c3cnc(Cl)c(NS(=O)(=O)c4ccccc4)c3)cc2s1
< 1 | CC(=O)Nc1nc2ccc(-c3cnc(Cl)c(NS(=O)(=O)c4ccccc4C(F)(F)F)c3)cc2s1
< 1 | CC(=O)Nc1nc2ccc(-c3cnc(Cl)c(NS(=O)(=O)c4cccc(C(F)(F)F)c4)c3)cc2s1
1.6 | CC(=O)Nc1nc2ccc(-c3cnc(Cl)c(NS(=O)(=O)c4ccc(C(F)(F)F)cc4)c3)cc2s1
< 1 | CC(=O)Nc1nc2ccc(-c3cnc(Cl)c(NS(=O)(=O)c4ccccc4Cl)c3)cc2s1
< 1 | CC(=O)Nc1nc2ccc(-c3cnc(Cl)c(NS(=O)(=O)c4cccc(Cl)c4)c3)cc2s1
< 1 | CC(=O)Nc1nc2ccc(-c3cnc(Cl)c(NS(=O)(=O)c4ccc(Cl)cc4)c3)cc2s1
2.1 | CC(=O)Nc1nc2ccc(-c3cnc(Cl)c(NS(=O)(=O)c4cccc(C(C)(C)C)c4)c3)cc2s1
2.1 | CC(=O)Nc1nc2ccc(-c3cnc(Cl)c(NS(=O)(=O)c4ccc(C(C)(C)C)cc4)c3)cc2s1
1.1 | CC(=O)Nc1nc2ccc(-c3cnc(Cl)c(NS(=O)(=O)c4ccccc4F)c3)cc2s1
2.3 | CC(=O)Nc1nc2ccc(-c3cnc(Cl)c(NS(=O)(=O)c4cccc(F)c4)c3)cc2s1

test system: not listed separately; experiment: in vitro; settings: human, liver microsomes
Description: Clearance in human liver microsomes

microsomal CLint [µL/min/mg] | Compound
> 399 | COc1ccc(S(=O)(=O)N(C)c2nccc(-c3ccc4nc(NC(C)=O)sc4c3)n2)cc1
579 | CC(=O)Nc1nc2ccc(-c3ccnc(N(C)S(=O)(=O)c4ccc(C)cc4)n3)cc2s1
42 | COc1ccc(S(=O)(=O)Nc2cc(-c3ccc4nc(NC(C)=O)sc4c3)cnc2Cl)cc1
< 14 | CC(=O)Nc1nc2ccc(-c3cnc(Cl)c(NS(=O)(=O)c4ccccc4)c3)cc2s1
< 14 | CC(=O)Nc1nc2ccc(-c3cnc(Cl)c(NS(=O)(=O)c4ccccc4C(F)(F)F)c3)cc2s1
17 | CC(=O)Nc1nc2ccc(-c3cnc(Cl)c(NS(=O)(=O)c4cccc(C(F)(F)F)c4)c3)cc2s1
< 14 | CC(=O)Nc1nc2ccc(-c3cnc(Cl)c(NS(=O)(=O)c4ccc(C(F)(F)F)cc4)c3)cc2s1
< 14 | CC(=O)Nc1nc2ccc(-c3cnc(Cl)c(NS(=O)(=O)c4ccccc4Cl)c3)cc2s1
16 | CC(=O)Nc1nc2ccc(-c3cnc(Cl)c(NS(=O)(=O)c4cccc(Cl)c4)c3)cc2s1
< 14 | CC(=O)Nc1nc2ccc(-c3cnc(Cl)c(NS(=O)(=O)c4ccc(Cl)cc4)c3)cc2s1
83 | CC(=O)Nc1nc2ccc(-c3cnc(Cl)c(NS(=O)(=O)c4cccc(C(C)(C)C)c4)c3)cc2s1
135 | CC(=O)Nc1nc2ccc(-c3cnc(Cl)c(NS(=O)(=O)c4ccc(C(C)(C)C)cc4)c3)cc2s1
< 14 | CC(=O)Nc1nc2ccc(-c3cnc(Cl)c(NS(=O)(=O)c4ccccc4F)c3)cc2s1
< 14 | CC(=O)Nc1nc2ccc(-c3cnc(Cl)c(NS(=O)(=O)c4cccc(F)c4)c3)cc2s1

target: Phosphatidylinositol 4,5-bisphosphate 3-kinase catalytic subunit alpha isoform (Homo sapiens, UniProt P42336); experiment: not given; settings: not given
Sequence (P42336 whole entry, canonical isoform): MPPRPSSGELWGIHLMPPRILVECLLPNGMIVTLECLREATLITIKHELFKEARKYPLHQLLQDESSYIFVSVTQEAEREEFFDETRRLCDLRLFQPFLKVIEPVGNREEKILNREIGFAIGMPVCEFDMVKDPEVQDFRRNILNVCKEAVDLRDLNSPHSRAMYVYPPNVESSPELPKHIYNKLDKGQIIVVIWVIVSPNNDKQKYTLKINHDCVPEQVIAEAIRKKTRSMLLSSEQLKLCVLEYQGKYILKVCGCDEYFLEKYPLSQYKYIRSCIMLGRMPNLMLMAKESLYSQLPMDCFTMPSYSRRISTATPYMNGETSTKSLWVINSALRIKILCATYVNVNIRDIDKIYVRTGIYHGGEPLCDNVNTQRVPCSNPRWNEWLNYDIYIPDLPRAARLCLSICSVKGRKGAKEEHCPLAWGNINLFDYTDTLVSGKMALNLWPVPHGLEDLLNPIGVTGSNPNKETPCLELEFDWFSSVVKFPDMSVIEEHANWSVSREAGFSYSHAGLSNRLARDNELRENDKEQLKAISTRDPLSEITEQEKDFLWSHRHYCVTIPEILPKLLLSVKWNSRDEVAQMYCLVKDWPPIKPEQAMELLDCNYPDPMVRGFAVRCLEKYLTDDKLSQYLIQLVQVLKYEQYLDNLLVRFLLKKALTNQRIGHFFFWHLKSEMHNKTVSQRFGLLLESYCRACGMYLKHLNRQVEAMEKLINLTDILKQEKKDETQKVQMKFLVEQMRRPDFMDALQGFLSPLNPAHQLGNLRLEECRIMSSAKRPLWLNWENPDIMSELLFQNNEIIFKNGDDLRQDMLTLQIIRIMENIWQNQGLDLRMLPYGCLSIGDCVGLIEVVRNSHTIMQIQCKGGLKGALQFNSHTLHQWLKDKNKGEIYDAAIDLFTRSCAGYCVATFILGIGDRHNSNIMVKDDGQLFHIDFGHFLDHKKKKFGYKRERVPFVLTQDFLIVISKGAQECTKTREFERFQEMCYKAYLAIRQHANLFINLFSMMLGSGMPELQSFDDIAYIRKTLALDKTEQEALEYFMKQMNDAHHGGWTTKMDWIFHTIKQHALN

Compound | Ki [nM]
COc1cccc(COc2nccc(-c3ccc4nc(NC(C)=O)sc4c3)n2)c1 | 18
COc1ccc(Sc2nccc(-c3ccc4nc(NC(C)=O)sc4c3)n2)cc1 | 18
CC(=O)Nc1nc2ccc(-c3ccnc(OCc4cccc(C)c4)n3)cc2s1 | 47
CC(=O)Nc1nc2ccc(-c3ccnc(OCc4ccc(C)cc4)n3)cc2s1 | 58
COc1ccc(COc2nccc(-c3ccc4nc(NC(C)=O)sc4c3)n2)cc1 | 58
CC(=O)Nc1nc2ccc(-c3ccnc(OCc4ccncc4)n3)cc2s1 | 128
CC(=O)Nc1nc2ccc(-c3ccnc(OCCCc4ccncc4)n3)cc2s1 | 114
CC(=O)Nc1nc2ccc(-c3ccnc(OCCCc4ccccc4)n3)cc2s1 | 32
COc1ccc(C(=O)Nc2nccc(-c3ccc4nc(NC(C)=O)sc4c3)n2)cc1 | 3130
CC(=O)Nc1nc2ccc(-c3ccnc(OCc4ccccc4)n3)cc2s1 | 105
CC(=O)Nc1nc2ccc(-c3ccnc(NCc4ccccc4)n3)cc2s1 | 85
CC(=O)Nc1nc2ccc(-c3ccnc(Cc4ccccc4)n3)cc2s1 | 605
CC(=O)Nc1nc2ccc(-c3ccnc(Sc4ccccc4F)n3)cc2s1 | 46
CC(=O)Nc1nc2ccc(-c3ccnc(Sc4cccc(F)c4)n3)cc2s1 | 31
CC(=O)Nc1nc2ccc(-c3ccnc(Sc4ccc(F)cc4)n3)cc2s1 | 44
CC(=O)Nc1nc2ccc(-c3ccnc(Sc4cccc(C)c4)n3)cc2s1 | 53
CC(=O)Nc1nc2ccc(-c3ccnc(Sc4ccc(C)cc4)n3)cc2s1 | 59
COc1cccc(Sc2nccc(-c3ccc4nc(NC(C)=O)sc4c3)n2)c1 | 48
COc1ccc(S(=O)(=O)Nc2cccc(-c3ccc4nc(NC(C)=O)sc4c3)c2)cc1 | 48

Next, values leading:

Ki [nM] | Compound
76 | COc1ccc(S(=O)(=O)N(C)c2nccc(-c3ccc4nc(NC(C)=O)sc4c3)n2)cc1
62 | CCN(c1nccc(-c2ccc3nc(NC(C)=O)sc3c2)n1)S(=O)(=O)c1ccc(OC)cc1
41 | CC(=O)Nc1nc2ccc(-c3ccnc(NS(=O)(=O)c4ccccc4F)n3)cc2s1
84 | CC(=O)Nc1nc2ccc(-c3ccnc(NS(=O)(=O)c4cccc(F)c4)n3)cc2s1
826 | CC(=O)Nc1nc2ccc(-c3ccnc(NS(=O)(=O)c4ccc(F)cc4)n3)cc2s1
82 | CC(=O)Nc1nc2ccc(-c3ccnc(NS(=O)(=O)c4ccc(C)cc4)n3)cc2s1
1.6 | COc1ccc(S(=O)(=O)Nc2cncc(-c3ccc4nc(NC(C)=O)sc4c3)c2)cc1
9 | COc1ccc(S(=O)(=O)Nc2cncc(-c3ccc4nc(NC(C)=O)sc4c3)n2)cc1
1.4 | COc1ccc(S(=O)(=O)Nc2cc(-c3ccc4nc(NC(C)=O)sc4c3)cnc2C#N)cc1
1.2 | COc1ccc(S(=O)(=O)Nc2cc(-c3ccc4nc(NC(C)=O)sc4c3)cnc2C)cc1
< 1 | COc1ccc(S(=O)(=O)Nc2cc(-c3ccc4nc(NC(C)=O)sc4c3)cnc2Cl)cc1
< 1 | CC(=O)Nc1nc2ccc(-c3cnc(Cl)c(NS(=O)(=O)c4ccccc4C(F)(F)F)c3)cc2s1
< 1 | CC(=O)Nc1nc2ccc(-c3cnc(Cl)c(NS(=O)(=O)c4cccc(C(F)(F)F)c4)c3)cc2s1
< 1 | CC(=O)Nc1nc2ccc(-c3cnc(Cl)c(NS(=O)(=O)c4ccc(C(F)(F)F)cc4)c3)cc2s1
< 1 | CC(=O)Nc1nc2ccc(-c3cnc(Cl)c(NS(=O)(=O)c4ccccc4Cl)c3)cc2s1
< 1 | CC(=O)Nc1nc2ccc(-c3cnc(Cl)c(NS(=O)(=O)c4cccc(Cl)c4)c3)cc2s1
< 1 | CC(=O)Nc1nc2ccc(-c3cnc(Cl)c(NS(=O)(=O)c4ccc(Cl)cc4)c3)cc2s1
< 1 | CC(=O)Nc1nc2ccc(-c3cnc(Cl)c(NS(=O)(=O)c4cccc(C(C)(C)C)c4)c3)cc2s1
< 1 | CC(=O)Nc1nc2ccc(-c3cnc(Cl)c(NS(=O)(=O)c4ccc(C(C)(C)C)cc4)c3)cc2s1
< 1 | CC(=O)Nc1nc2ccc(-c3cnc(Cl)c(NS(=O)(=O)c4ccccc4F)c3)cc2s1
1.1 | CC(=O)Nc1nc2ccc(-c3cnc(Cl)c(NS(=O)(=O)c4cccc(F)c4)c3)cc2s1

test system: not listed separately; experiment: in vitro; settings: rat, liver microsomes
Description: Clearance in rat liver microsomes

microsomal CLint [µL/min/mg] | Compound
> 399 | COc1ccc(S(=O)(=O)N(C)c2nccc(-c3ccc4nc(NC(C)=O)sc4c3)n2)cc1
> 399 | CC(=O)Nc1nc2ccc(-c3ccnc(N(C)S(=O)(=O)c4ccc(C)cc4)n3)cc2s1
> 399 | COc1ccc(S(=O)(=O)Nc2cc(-c3ccc4nc(NC(C)=O)sc4c3)cnc2Cl)cc1
> 399 | CC(=O)Nc1nc2ccc(-c3cnc(Cl)c(NS(=O)(=O)c4ccccc4)c3)cc2s1
500 | CC(=O)Nc1nc2ccc(-c3cnc(Cl)c(NS(=O)(=O)c4ccccc4C(F)(F)F)c3)cc2s1
36 | CC(=O)Nc1nc2ccc(-c3cnc(Cl)c(NS(=O)(=O)c4cccc(C(F)(F)F)c4)c3)cc2s1
< 14 | CC(=O)Nc1nc2ccc(-c3cnc(Cl)c(NS(=O)(=O)c4ccc(C(F)(F)F)cc4)c3)cc2s1
> 399 | CC(=O)Nc1nc2ccc(-c3cnc(Cl)c(NS(=O)(=O)c4ccccc4Cl)c3)cc2s1
> 399 | CC(=O)Nc1nc2ccc(-c3cnc(Cl)c(NS(=O)(=O)c4cccc(Cl)c4)c3)cc2s1
< 14 | CC(=O)Nc1nc2ccc(-c3cnc(Cl)c(NS(=O)(=O)c4ccc(Cl)cc4)c3)cc2s1
610 | CC(=O)Nc1nc2ccc(-c3cnc(Cl)c(NS(=O)(=O)c4cccc(C(C)(C)C)c4)c3)cc2s1
460 | CC(=O)Nc1nc2ccc(-c3cnc(Cl)c(NS(=O)(=O)c4ccc(C(C)(C)C)cc4)c3)cc2s1
320 | CC(=O)Nc1nc2ccc(-c3cnc(Cl)c(NS(=O)(=O)c4ccccc4F)c3)cc2s1
> 399 | CC(=O)Nc1nc2ccc(-c3cnc(Cl)c(NS(=O)(=O)c4cccc(F)c4)c3)cc2s1
